We go through twelve compounds from patent US12129223B2, “Lipids for use in lipid nanoparticle formulations” (Acuitas Therapeutics, Inc., priority 2021, dated 2024).

By pKa is commonly meant the negative logarithm of the acid dissociation constant. Lower therefore signals a stronger acid or weaker base.

Series [1] in a line: Determination of pKa of formulated lipids (TNS fluorescence assay in lipid nanoparticles). It counts as physicochemical. Conditions: lipid nanoparticles (compound/DSPC/cholesterol/PEG-lipid), lipid formulated in LNP (lipid/DSPC/cholesterol/PEG-lipid), pH at half-maximal intensity. How it is done:
As described elsewhere, the pKa of formulated lipids is correlated with the effectiveness of LNPs for delivery of nucleic acids (see Jayaraman et al, Angewandte Chemie, International Edition (2012), 51(34), 8529-8533; Semple et al, Nature Biotechnology 28, 172-176 (2010)). In some embodiments, the preferred range of pKa is ˜5 to ˜7. The pKa of each lipid is determined in lipid nanoparticles using an assay based on fluorescence of 2-(p-toluidino)-6-napthalene sulfonic acid (TNS). Lipid nanoparticles comprising compound of structure (I)/DSPC/cholesterol/PEG-lipid (50/10/38.5/1.5 or 47.5:10:40.7:1.8 mol %) in PBS at a concentration of 0.4 mM total lipid are prepared using the in-line process as described in Example 1. TNS is prepared as a 100 μM stock solution in distilled water. Vesicles are diluted to 24 μM lipid in 2 mL of buffered solutions containing 10 mM HEPES, 10 mM MES, 10 mM ammonium acetate, and 130 mM NaCl, where the pH ranged from 2.5 to 11. An aliquot of the TNS solution is added to give a final concentration of 1 μM and following vortex mixing fluorescence intensity is measured at room temperature in a SLM Aminco Series 2 Luminescence Spectrophotometer using excitation and emission wavelengths of 321 nm and 445 nm. A sigmoidal best fit analysis is applied to the fluorescence data and the pKa is measured as the pH giving rise to half-maximal fluorescence intensity.

The test system of series [2] is human IgG in mouse serum. The series is described as follows: Immunoglobulin G (IgG) mRNA in vivo evaluation using lipid nanoparticle compositions. More on the design: species or system mice. Particulars: LNP with IgG mRNA, tail vein injection, serum 24 hours after administration; for Serum IgG @ 0.3 mg/kg: 0.3 mg mRNA/kg; for Serum IgG @ 1.0 mg/kg: 1.0 mg mRNA/kg. How it is done:
A lipid of structure (I), DSPC, cholesterol and PEG-lipid are solubilized in ethanol at a molar ratio of 50:10:38.5:1.5 or 47.5:10:40.7:1.8. Lipid nanoparticles (LNP) are prepared at a total lipid to mRNA weight ratio of approximately 10:1 to 40:1. Briefly, the mRNA is diluted to 0.2 mg/mL in 10 to 50 mM citrate buffer, pH 4 or 10 to 25 mM acetate buffer, pH 4. Syringe pumps are used to mix the ethanolic lipid solution with the mRNA aqueous solution at a ratio of about 1:5 to 1:3 (vol/vol) with total flow rates above 15 mL/min. The ethanol is then removed and the external buffer replaced with PBS by dialysis. Finally, the lipid nanoparticles are filtered through a 0.2 µm pore sterile filter.
Studies are performed in 6-8 week old CD-1/ICR mice (Envigo) according to guidelines established by an institutional animal care committee (ACC) and the Canadian Council on Animal Care (CCAC). Varying doses of mRNA-lipid nanoparticle are systemically administered by tail vein injection and animals euthanized at a specific time point (e.g., 24 hours) post-administration. The whole blood is collected, and the serum subsequentially separated by centrifuging the tubes of the whole blood at 2000×g for 10 minutes at 4° C. and stored at −80° C. until use for analysis.
For immunoglobulin G (IgG) ELISA (Life Diagnostics Human IgG ELISA kit), the serum samples are diluted at 100 to 15000 folds with 1×diluent solution. 100 μL of diluted serum is dispensed into anti-human IgG coated 96-well plate in duplicate alongside human IgG standards and incubated in a plate shaker at 150 rpm at 25° C. for 45 minutes. The wells are washed 5 times with 1× wash solution using a plate washer (400 μL/well). 100 μL of HRP conjugate is added into each well and incubated in a plate shaker at the same condition above. The wells are washed 5 times again with 1× wash solution using a plate washer (400 μL/well). 100 μL of TMB reagent is added into each well and incubated in a plate shaker at the same condition above. The reaction is stopped by adding 100 μL of Stop solution to each well. The absorbance is read at 450 nm (A450) with a microplate reader. The amount of human IgG in mouse serum is determined by plotting A450 values for the assay standard against human IgG concentration.
Representative compounds of the disclosure shown in Table 2 were formulated using the following molar ratio: 50% cationic lipid/10% distearoylphosphatidylcholine (DSPC)/38.5% Cholesterol/1.5% PEG lipid 2-[2-(ω-methoxy(polyethyleneglycol2000)ethoxy]-N,N-ditetradecyl acetamide) or 47.5% cationic lipid/10% DSPC/40.7% Cholesterol/1.8% PEG lipid. Relative activity was determined by measuring luciferase expression in the liver 4 hours following administration via tail vein injection as described in Example 1 or by measuring the amount of human IgG in mouse serum as described in example 2. The activity was compared at a dose of 1.0 or 0.5 or 0.3 mg mRNA/kg and expressed as ng luciferase/g liver measured 4 hours after administration, as described in Example 1 or as μg IgG/mL serum measured 24 hours after administration, as described in Example 2. Compound numbers in Table 2 refer to the compound numbers of Table 1.

For `CCCCCCCCCCN(CCCCCCCCCC)C(=O)CCCCCCCN(CCCCCCCC(=O)N(CCCCCCCCCC)CCCCCCCCCC)CCCNc1c(NC)c(=O)c1=O` [Compound I-50, 8,8′-((3-((2-(methylamino)-3,4-dioxocyclobut-1-en-1-yl)amino)propyl)azanediyl)bis(N,N-didecyloctanamide)], in series [1], the pKa is 6.73. Besides, in series [2], the “Serum IgG @ 0.3 mg/kg” value turned out to be 1.32 ± 0.28 µg/mL and the “Serum IgG @ 1.0 mg/kg” value came out at 11.05 ± 2.19 µg/mL.

The compound `CCCCCCCCCCN(CCCCCCCCCC)C(=O)CCCCCCCN(CCCCCCCC(=O)N(CCCCCCCCCC)CCCCCCCCCC)CCCC(C)(C)CO` [Compound I-43, 8,8′-((5-hydroxy-4,4-dimethylpentyl)azanediyl)bis(N,N-didecyloctanamide)] returned a pKa in series [1] of 6.02. Besides, in series [2], the “Serum IgG @ 0.3 mg/kg” value was 2.45 ± 0.66 µg/mL and the “Serum IgG @ 1.0 mg/kg” value was found to be 9.97 ± 1.17 µg/mL.

With `CCCCCCCCCCN(CCCCCCCCN(CCCCCO)CCCCCCCC(=O)N(CCCCCCCCCC)CCCCCCCCCC)C(=O)CCCCCCCCC` [Compound I-74, N-decyl-N-(8-((8-(didecylamino)-8-oxooctyl)(5-hydroxypentyl)amino)octyl)decanamide], the pKa in series [1] stood at 6.53. In addition, in series [2], the “Serum IgG @ 0.3 mg/kg” value was 50.16 ± 6.58 µg/mL and the “Serum IgG @ 1.0 mg/kg” value stood at 292.44 ± 40.55 µg/mL.

On to `CCCCCCCCCCN(CCCCCCCCCC)C(=O)C(F)CCCCCCN(C)CCCCCCC(F)C(=O)N(CCCCCCCCCC)CCCCCCCCCC` (stereo not shown) [Compound I-83, 8,8′-(methylazanediyl)bis(N,N-didecyl-2-fluorooctanamide)], for which the pKa in series [1] is 6.12. Further, in series [2], the “Serum IgG @ 0.3 mg/kg” value came out at 12.94 ± 2.03 µg/mL and the “Serum IgG @ 1.0 mg/kg” value worked out at 142.26 ± 26.31 µg/mL.

In turn, `CCCCCCCCCCN(CCCCCCCCCC)C(=O)CCCCCCCN(CCCO)CCCCCCCC(=O)N(CCCCCCCCCC)CCCCCCCCCC` [Compound I-41, 8,8′-((3-hydroxypropyl)azanediyl)bis(N,N-didecyloctanamide)] showed a pKa in series [1] of 6.6. Besides, the “Serum IgG @ 0.3 mg/kg” value in series [2] worked out at 4.78 ± 1.65 µg/mL.

In turn, `CCCCCCCCCCCCN(CCCCCCCCN(C)CCCCCCCCN(CCCCCCCCCCCC)C(=O)CCCCCCCCCCC)C(=O)CCCCCCCCCCC` [Compound I-67, N,N′-((methylazanediyl)bis(octane-8,1-diyl))bis(N-dodecyldodecanamide)] came in with a pKa in series [1] of 6.18. For the same compound, in series [2], the “Serum IgG @ 0.3 mg/kg” value came out at 7.19 ± 1.41 µg/mL and the “Serum IgG @ 1.0 mg/kg” value amounted to 62.94 ± 13.88 µg/mL.

For the compound `CCCCCCCCCCN(CCCCCCCCCC)C(=O)CCCCCCN(C)CCCCCCC(=O)N(CCCCCCCCCC)CCCCCCCCCC` [Compound I-75, 7,7′-(methylazanediyl)bis(N,N-didecylheptanamide)], the pKa in series [1] is 6.48. For the same compound, in series [2], the “Serum IgG @ 0.3 mg/kg” value turned out to be 84.87 ± 12.19 µg/mL and the “Serum IgG @ 1.0 mg/kg” value was 343.06 ± 42.39 µg/mL.

For the compound `CCCCCCCCCCN(CCCCCCCCCC)C(=O)CCCN(CCCCCO)CCCC(=O)N(CCCCCCCCCC)CCCCCCCCCC` [Compound I-85, 4,4′-((5-hydroxypentyl)azanediyl)bis(N,N-didecylbutanamide)], in series [1], the pKa is 6.81. Besides, the “Serum IgG @ 0.3 mg/kg” value in series [2] is 10.74 ± 2.79 µg/mL.

Regarding `CCCCCCCCCCCCN(CCCCCCCCN(CCCCCO)CCCCCCCCN(CCCCCCCCCCCC)C(=O)CCCCCCCCCCC)C(=O)CCCCCCCCCCC` [Compound I-68, N,N′-(((5-hydroxypentyl)azanediyl)bis(octane-8,1-diyl))bis(N-dodecyldodecanamide)], the pKa in series [1] is 6.41. In series [2], the “Serum IgG @ 0.3 mg/kg” value was 12.30 ± 2.41 µg/mL and the “Serum IgG @ 1.0 mg/kg” value was 121.93 ± 34.85 µg/mL.

With `CCCCCCCCCCN(CCCCCCCCCC)C(=O)CCCCCCCN(CCCCCCCO)CCCCCCCC(=O)N(CCCCCCCCCC)CCCCCCCCCC` [Compound I-45, 8,8′-((7-hydroxyheptyl)azanediyl)bis(N,N-didecyloctanamide)], in series [1], the pKa was 5.96. Moreover, in series [2], the “Serum IgG @ 0.3 mg/kg” value is 3.03 ± 0.66 µg/mL and the “Serum IgG @ 1.0 mg/kg” value came to 13.00 ± 2.05 µg/mL.

As for `CCCCCCCCCCCCN(CCCCCCCCCCCC)C(=O)CCCCCCCN(C)CCCCCCCC(=O)N(CCCCCCCCCCCC)CCCCCCCCCCCC` [Compound I-40, 8,8′-(methylazanediyl)bis(N,N-didodecyloctanamide)], in series [1], the pKa was 6.17. For the same compound, in series [2], the “Serum IgG @ 0.3 mg/kg” value is 16.72 ± 5.38 µg/mL and the “Serum IgG @ 1.0 mg/kg” value was 101.96 ± 4.12 µg/mL.

For `CCCCCCCCCCN(CCCCCCCCCC)C(=O)CCCCCCCN(CCCCCCCC(=O)N(CCCCCCCCCC)CCCCCCCCCC)CCOCCO` [Compound I-42, 8,8′-((2-(2-hydroxyethoxy)ethyl)azanediyl)bis(N,N-didecyloctanamide)], the pKa in series [1] amounted to 6.66. Besides, in series [2], the “Serum IgG @ 0.3 mg/kg” value is 3.13 ± 0.27 µg/mL and the “Serum IgG @ 1.0 mg/kg” value was determined as 12.42 ± 3.81 µg/mL.
